Values of other authors, collected in publication PMC6311893, “Computational prediction of plasma protein binding of cyclic peptides from small molecule experimental data using sparse modeling techniques” (BMC Bioinformatics, 2018).

Test system: plasma protein
Conditions: fraction bound to plasma protein; small molecule dataset, sheet 1-SM (Set Dte = test, Dtr = training); ref Ingle et al.; cited from earlier work

Compound	PPB (fb)
C[C@]12C=CC(=O)C=C1C(Cl)=C[C@@H]1[C@@H]2[C@@H](O)C[C@@]2(C)[C@H]1CC[C@]2(O)C(=O)CO [cloprednol]	0.8
Clc1ccccc1C(c1ccccc1)(c1ccccc1)n1ccnc1 [clotrimazole]	0.5
Cc1onc(-c2ccccc2Cl)c1C(=O)N[C@@H]1C(=O)N2[C@@H]1SC(C)(C)[C@@H]2C(=O)O [cloxacillin]	0.95
CC(=O)OCC(=O)[C@@]1(O)CC[C@H]2[C@@H]3CCC4=CC(=O)CC[C@]4(C)[C@H]3C(=O)C[C@@]21C [cortisone acetate]	0.95
O=C(O)c1cc(=O)c2c(OCC(O)COc3cccc4oc(C(=O)O)cc(=O)c34)cccc2o1 [cromolyn]	0.68
CN1CCN(C(c2ccccc2)c2ccccc2)CC1 [cyclizine]	0.6
CN(C)CCC=C1c2ccccc2C=Cc2ccccc21 [cyclobenzaprine]	0.93
N[C@@H]1CON=C1O [cycloserine]	0.2
O=C1CN(/N=C/c2ccc(-c3ccc([N+](=O)[O-])cc3)o2)C(O)=N1 [dantrolene]	0.89
N=C(N)N1CCc2ccccc2C1 [debrisoquine]	0.85
CC(=O)OCC(=O)[C@@]12N=C(C)O[C@@H]1C[C@H]1[C@@H]3CCC4=CC(=O)C=C[C@]4(C)[C@H]3[C@@H](O)C[C@@]12C [deflazacort]	0.4
CC(C)Nc1cccnc1N1CCN(C(=O)c2cc3cc(NS(C)(=O)=O)ccc3[nH]2)CC1 [delavirdine]	0.98
C#C[C@]1(O)CC[C@H]2[C@@H]3CCC4=CCCC[C@@H]4[C@H]3C(=C)C[C@@]21CC [desogestrel]	0.98
OC[C@H]1OC(O)[C@H](O)[C@@H](O)[C@@H]1O (stereo partly shown) [dextrose]	0.3
CCOC(=O)NC1=C(N2CC2)C(=O)C(NC(=O)OCC)=C(N2CC2)C1=O [diaziquone]	0.79
O=C(O)Cc1ccccc1Nc1c(Cl)cccc1Cl [diclofenac acid]	0.99
CCN(CC)C(=O)N1CCN(C)CC1 [diethylcarbamazine]	0
CN1C[C@H](C(=O)N[C@]2(C)O[C@@]3(O)[C@@H]4CCCN4C(=O)[C@H](Cc4ccccc4)N3C2=O)C[C@@H]2c3cccc4[nH]cc(c34)C[C@H]21 [dihydroergotamine]	0.93
OCCN(CCO)c1nc(N2CCCCC2)c2nc(N(CCO)CCO)nc(N3CCCCC3)c2n1 [dipyridamole]	0.99
Cc1c(N(C)CS(=O)(=O)O)c(=O)n(-c2ccccc2)n1C [dipyrone]	0.6
CCN(CC)C(=S)SSC(=S)N(CC)CC [disulfiram]	0.5
O=C(O[C@@H]1C[C@@H]2C[C@H]3C[C@H](C1)N2CC3=O)c1c[nH]c2ccccc12 [dolasetron]	0.7
NCCc1ccc(O)c(O)c1 [dopamine]	0.1
CCN[C@H]1C[C@H](C)S(=O)(=O)c2sc(S(N)(=O)=O)cc21 [dorzolamide]	0.3
CC(C)(C)c1ccc(C(=O)CCCN2CCC(OC(c3ccccc3)c3ccccc3)CC2)cc1 [ebastine]	0.98
NCCCC(N)(C(=O)O)C(F)F (stereo not shown) [eflornithine]	0
CCOC(=O)/C=C(C)/C=C/C=C(C)/C=C/c1c(C)cc(OC)c(C)c1C [etretinate]	0.99
CC1(C)O[C@@H]2C[C@H]3[C@@H]4C[C@H](F)C5=CC(=O)C=C[C@]5(C)[C@H]4[C@@H](O)C[C@]3(C)[C@]2(C(=O)CO)O1 [flunisolide]	0.5

Same assay, conditions: fraction bound to plasma protein; small molecule dataset, sheet 1-SM; ref Ingle et al.; cited from earlier work

Compound	PPB (fb)
CN(C)CC/C=C1\c2ccccc2CSc2ccccc21 [dothiepin]	0.85
O=C(CCCN1CC=C(n2c(=O)[nH]c3ccccc32)CC1)c1ccc(F)cc1 [droperidol]	0.95
C[C@]12CCC(=O)C=C1[C@@H]1C[C@@H]1[C@H]1[C@@H]3[C@@H]4C[C@@H]4[C@@]4(CCC(=O)O4)[C@@]3(C)CC[C@@H]12 [drospirenone]	0.97
O=C1Nc2ccc(Cl)cc2[C@@](C#CC2CC2)(C(F)(F)F)O1 [efavirenz]	0.99
CCOC(=O)[C@H](CCc1ccccc1)N[C@@H](C)C(=O)N1CCC[C@H]1C(=O)O [enalapril]	0.55
CNC[C@H](O)c1ccc(O)c(O)c1 [epinephrine]	0.5
COC(=O)[C@@H]1CC2=CC(=O)CC[C@]2(C)[C@@]23O[C@@H]2C[C@@]2(C)[C@@H](CC[C@@]24CCC(=O)O4)[C@H]13 [eplerenone]	0.46
C=C(CC)C(=O)c1ccc(OCC(=O)O)c(Cl)c1Cl [ethacrynic acid]	0.9
CCc1cc(C(N)=S)ccn1 [ethionamide]	0.3
CCC1(C)CC(=O)NC1=O (stereo not shown) [ethosuximide]	0
CCCN(CC)C(CC)C(=O)Nc1c(C)cccc1C (stereo not shown) [etidocaine]	0.94
CCc1cccc2c3c([nH]c12)C(CC)(CC(=O)O)OCC3 (stereo not shown) [etodolac]	0.99
CO[C@H]1C[C@@H]2CC[C@@H](C)[C@@](O)(O2)C(=O)C(=O)N2CCCC[C@H]2C(=O)O[C@H]([C@H](C)C[C@@H]2CC[C@@H](OCCO)[C@H](OC)C2)CC(=O)[C@H](C)/C=C(\C)[C@@H](O)[C@@H](OC)C(=O)[C@H](C)C[C@H](C)/C=C/C=C/C=C/1C [everolimus]	0.74
C=C1C[C@@H]2[C@H](CC[C@]3(C)C(=O)CC[C@@H]23)[C@@]2(C)C=CC(=O)C=C12 [exemestane]	0.9
CC(=O)OCC(CCn1cnc2cnc(N)nc21)COC(C)=O [famciclovir]	0.15
NC(=O)OCC(COC(N)=O)c1ccccc1 [felbamate]	0.23
O=C(O)Cc1ccccc1Oc1ccc(Cl)cc1Cl [fenclofenac]	0.99
CC(NCCC(c1ccccc1)c1ccccc1)c1ccccc1 (stereo not shown) [fendiline]	0.95

Compound	PPB (fb)
CC(C)OC(=O)C(C)(C)Oc1ccc(C(=O)c2ccc(Cl)cc2)cc1 [fenofibrate]	0.99
Oc1ccc(C2CNCCc3c2cc(O)c(O)c3Cl)cc1 (stereo not shown) [fenoldopam]	0.88
CC(C(=O)O)c1cccc(Oc2ccccc2)c1 (stereo not shown) [fenoprofen]	0.99
CC(C)=CCC1C(=O)N(c2ccccc2)N(c2ccccc2)C1=O [feprazone]	0.95
COc1cc(/C=C/C(=O)O)ccc1O [ferulic acid]	0.73
O=C(OCC(O)CO)c1ccccc1Nc1ccnc2c(C(F)(F)F)cccc12 (stereo not shown) [floctafenine]	0.85
CS(=O)(=O)c1ccc([C@@H](O)[C@@H](CF)NC(=O)C(Cl)Cl)cc1 [florfenicol]	0.12
C[C@]12CCC(=O)C=C1CC[C@H]1[C@@H]3CC[C@](O)(C(=O)CO)[C@@]3(C)C[C@H](O)[C@@]12F [fludrocortisone]	0.75
O=C(O)c1ccccc1Nc1cccc(C(F)(F)F)c1 [flufenamic acid]	0.9
Fc1ccc(C(c2ccc(F)cc2)N2CCN(C/C=C/c3ccccc3)CC2)cc1 [flunarizine]	0.95
C[C@@H]1C[C@H]2[C@@H]3C[C@H](F)C4=CC(=O)C=C[C@]4(C)[C@H]3[C@@H](O)C[C@]2(C)[C@H]1C(=O)CO [fluocortolone]	0.9
CNCCC(Oc1ccc(C(F)(F)F)cc1)c1ccccc1 (stereo not shown) [fluoxetine]	0.95
OCCN1CCN(CCC=C2c3ccccc3Sc3ccc(C(F)(F)F)cc32)CC1 [flupenthixol]	0.95
OCCN1CCN(CCCN2c3ccccc3Sc3ccc(C(F)(F)F)cc32)CC1 [fluphenazine]	0.95
CC(C(=O)O)c1ccc(-c2ccccc2)c(F)c1 (stereo not shown) [flurbiprofen]	0.99
CC(C)C(=O)Nc1ccc([N+](=O)[O-])c(C(F)(F)F)c1 [flutamide]	0.9
Cc1cn[nH]c1 [fomepizole]	0

Same assay, conditions: plasma; cited from earlier work

Compound	PPB (fb)
O=C(O)C1N=C(c2ccccc2)c2cc(Cl)ccc2NC1=O (stereo not shown) [clorazepic acid]	0.91
CCC1(C2=CCCCC2)C(=O)NC(=O)NC1=O [cyclobarbital]	0.7
C[C@H]1O[C@@H](O[C@H]2CC[C@@]3(C)[C@H](CC[C@@H]4[C@@H]3C[C@@H](O)[C@]3(C)[C@@H](C5=CC(=O)OC5)CC[C@]43O)C2)C[C@H](O)[C@@H]1O[C@H]1C[C@H](O)[C@H](O[C@H]2C[C@H](O)[C@H](O[C@@H]3O[C@H](CO)[C@@H](O)[C@H](O)[C@H]3O)[C@@H](C)O2)[C@@H](C)O1 [deslanoside]	0.2
CC(=O)Oc1ccc2c3c1OC1C(OC(C)=O)C=CC4C(C2)N(C)CCC341 (stereo not shown) [diamorphine]	0
ClC1=C(Cl)[C@]2(Cl)[C@@H]3[C@@H]4C[C@@H]([C@H]5O[C@@H]45)[C@@H]3[C@@]1(Cl)C2(Cl)Cl [dieldrin]	0.99
CC(=O)[C@H]1CC[C@H]2[C@@H]3C=CC4=CC(=O)CC[C@@]4(C)[C@@H]3CC[C@]12C [dydrogesterone]	0.97
Clc1ccc2c(c1)C(c1ccccc1)=NCc1nncn1-2 [estazolam]	0.93
CCO [ethanol]	0
C#CC(O)(/C=C/Cl)CC (stereo not shown) [ethchlorvynol]	0.6
CCc1cc2c(s1)-n1c(C)nnc1CN=C2c1ccccc1Cl [etizolam]	0.93
